The values below come from patent US20040219217A1, “Conjugates of polysaccharide polymers of natural origin” (priority 2001, published 2004).

Series [1] can be described thus: in vitro cleavage of the conjugation in artificial sweat. The settings on record: 18 h hydrolysis, skin's usual pH, 37° C. Format: physicochemical. Here is the method: In the following table 2, different chemical conjugations contemplated by the present invention have been tested for in vitro cleavage under conditions simulating the topical application of the polysaccharide polymers of the present invention to the skin. In particular, for evaluating the biodegradability of a given chemical conjugation established between cotton and an active substance, the conjugate is subjected to hydrolysis at the skin's usual pH at 37° C. under mild agitation in the presence of an enzymatic mixture known as “artificial sweat”. After the pre-established time period of contact with the hydrolysis medium, the same was analyzed for the active substances or their fragments contained therein. The examples as listed below were chosen on the following grounds: […]

The subject of series [2] is experimental sclerosis in femoral veins. Briefly: experimental sclerosis in rabbits' femoral veins. Format: in vivo. As to conditions: rabbit femoral vein, carbon tetrachloride as sclerotizing agent, gauze bandage, after ten days. Here is the method: 4. Influence of the application of derivatized cotton fibres on the entity of experimental sclerosis in rabbits' femoral veins.
After a suitable depilation a rabbit's femoral vein is closed for a length of about 5 cm by means of suture stitches downstream and upstream.
Within the separated area 0.05 ml of carbon tetrachloride in 10% solution (Fluka 87031) is added as sclerotizing agent.
The area is suitably bandaged with normal cotton gauzes (control) or derivatized gauzes so that they perfectly adhere to the treated area.
After ten days the vein fragments undergoing stasis are taken and controlled with a microscope to check the parietal state and the consistency of the sclerotizing deposits.
It is thus possible to observe how the application in the area receiving layers of derivatized cotton gauzes with: […]

In series [3] the test system is granuloma from cotton pellets. Briefly: induction of granuloma from cotton pellets. Format: in vivo. The settings on record: rats, subcutaneous cotton pellet 1 g, after fifteen days, vs simple cotton. From the text: 3. Influence of fibre derivatized with anti-inflammatories or with immunostimulating agents on the phlogogenic process.
The experiments have been carried out on rats through the test of induction of granuloma from “cotton pellets”.
According to this test cotton pellets having a pre-established weight (1 g) and shape are introduced into the subcutaneous region of the subaxillary area of the animals using a cannula which can pierce the skin and the sub-skin (the scar is closed again with a suture stitch).
Around the cotton pellet a “granuloma” collagen deposit is formed, whose entity is proportional to the phlogogenic process.
After fifteen days from the operation the granuloma is taken from the animal under anesthesia and it is weighed to determine its entity.
In the present case the cotton used as a base for the implantation of the granuloma consists of: […]

In another series the test system is Escherichia coli. Briefly: plate culture growth under derivatized cotton gauze. It is filed as cell-based. As to conditions: E. coli, 24 hours at 37° C., vs normal growth conditions. From the text:
(§1) 2. Evaluation of the influence of cotton derivatized with germicides, with anti-bacterial or anti-fungi agents in the development and amount of microorganic flora.
(§2) The influence of suitably derivatized cotton fibre on the development of microorganic flora has been determined “in vitro” on plate growing cultures of various micro-organisms: Candida albicans, Escherichia coli, Staphylococcus aureus isolated and characterized by contaminated organic material.
(§3) To this purpose growth selective mediums are prepared (sabouraud agar for fungi and nutrient agar for bacteria) with which Petri dishes are prepared.
(§4) On the medium surface the microorganism culture is applied by deposition of one ml of a suspension of said microorganism containing 10^9 microorganisms, lightly agitating so as to cover the whole plate surface.
(§5) A cotton gauze obtained from fibre derivatized with the various substances taken into consideration is then applied onto the surface; the whole is then placed in a thermostat at 37° C.
(§6) After 24 hours the gauze is removed and the developed colonies are compared with plates in normal growth conditions.
(§7) The reduction in percentage of the growth in the plates characterized by conjugated gauze is evaluated with respect to normal growth conditions.

A further series relates to Staphylococcus aureus. The description is as above. The settings on record: S. aureus, 24 hours at 37° C., vs normal growth conditions. It is filed as cell-based.
Text: as §1, §2, §3, §4, §5, §6, §7

The test system of a further series is Candida albicans. Described as above. It is filed as cell-based. As to conditions: C. albicans, 24 hours at 37° C., vs normal growth conditions.
Text: as §1, §2, §3, §4, §5, §6, §7

In the next series the test system is mite population. The settings on record: dust collected after two days, vs underivatized fabrics. The protocol:
8. Performance of anti-mite fabrics.
Cotton fibres conjugated to acaricides (as set out in the chemical experimental part above) were used for obtaining fabrics (woven and non-woven) used in turn for the manufacture of household articles (curtains, carpet floor and the like) placed in living environments. In particular, living environments (flats, apartments and houses) at the countryside at locations particularly exposed to dust and ventilation were chosen. Moreover, the tests were conducted during spring, which is the period with the highest mite contamination risk.
After two days of total exposure of the living environments to the open air, at the point in time zero, the dust was removed through vacuum cleaning and the presence and the status of the mite population contained therein was subjected to microscopic examination. Thereafter, some of the living environments, after appropriate randomization, were equipped with the fabrics according to the invention obtained from fibres conjugated to acaricides, thus making up a first test group. On the other hand, the remaining living environments were equipped with fabrics from customary cotton thereby making up a second test group as a control for the development of the mite population.
After another two days, the dust from both of the test groups was collected and the overall number of mites as well as the number of living mites was established.

The test system of a further series is UV-induced edema in skin. Briefly: UV-induced edema (erythema) in rats' skin. It is filed as in vivo. As to conditions: daily application, vs animals with no application. Here is the method: 6. Influence of the application of derivatized cotton fibres on UV-induced edema in rats' skin.
Adult rats are depilated on their backs and are then exposed to UV radiations until a consistent skin edema forms.
The exposition is carried out only on pre-established circular areas using suitable pierced masks.
Then normal cotton gauzes (controls) or gauzes obtained from fibre derivatized with a medicament are applied with a good adherence onto the inflamed areas. Simultaneously another group of animals is tested to check the effectiveness of the application of the same medicaments in form of 5% gel.
The regression of the erythema defined as the reduction of the entity and surface of the reddening area is controlled daily with respect to control animals with no application, and immediately afterwards the medicament is applied again in the various forms.
On the 5th day the average extension of the erythema surface is measured and its reduction in percentage with respect to the animals with no application is calculated.

Series [4] deals with subcutaneous lipid deposit. Briefly: experimental subcutaneous lipid deposit in rats. It is filed as in vivo. As to conditions: abdominal tissue, gauze applied from the eighth day, after thirty days. The protocol: 7. Influence of the application of derivatized cotton fibres on experimental subcutaneous lipid deposit in rats.
The experiments were carried out on adult rats by injecting into their subcutaneous abdominal areas a lipid fraction rich in cholesterol (Sigma L 4646), and daily repeating the administrations until a stabilized subcutaneous lipid deposit is obtained; the fat mixture is injected in six adjacent sites in a volume of 0.2 ml/location for 7 days.
Then, from the eighth day on, cotton gauzes obtained from fibre derivatized with lipase (example II.F. above) are applied onto said areas in a perfectly adhering way.
After thirty days the animals are killed and the treated abdomen areas is taken. Aliquots of said area of about 2 g, precisely weighed, are homogenized in a Waring blender and the lipid content is extracted by adding aliquots of ethyl ether under strong stirring: three extractions with 20 ml of solvent each.
The ether fractions are mixed and concentrated in a rotary evaporator until dryness.
The concentration/g of extracted lipid tissue is determined by weighing said extracts.

As to cotton-CH═N-procaine [Cotton/procaine], in series [1], the “% of released active principle” value came to 76.3%. As for cotton-S—S—CH2—CH(COOH)—N═CH-heparin, the “% of released active principle” value in [1] was 50.4%. For the same substance, the tissue sclerotic state result in [2] is on record as “reduce the tissue sclerotic state to a consistent extent”.

As for cotton-S-S-cys-polylys-naproxen, the “% reduction in the weight of the granuloma” value (“% reduction in the weight” for short) in series [3] amounted to 64.0%.

For cotton-CH═N-bacitracin, the “% reduction in the development of colonies” value (from here on “% reduction … of colonies”) with Escherichia coli was 75%; in the series on Staphylococcus aureus, 95%; in the series with Candida albicans, 65%. On to “cotton-CH2—NH-polylys-(NH—CO-PABA-benzylbenzoate)n [III.B.2.2.2.]”, for which the “Decrease (%) of total living mite population” value (“Decrease (%)” below) in the series on mite population is listed as 100%. Take cotton-S—S—CH2—CH(COOH)—NH—CO-naproxen: in series [3], the “% reduction in the weight” value is 30.0%. As to “cotton-CH═N-polylys-(NH—CO-PABA-benzylbenzoate)n [III.B.2.2.1.]”, the “Decrease (%)” value in the series with mite population worked out at 94%. For “cotton-S-S-cys-polylys-(PABA-hydrocortisone)n”, the “% reduction in the weight” value in series [3] stood at 90.0%. Further, the “% reduction of the erythema extension with respect to controls on the 5th day after the induction” value in the series with UV-induced edema in skin is listed as 95%. In the case of “cotton-CH2—NH-lys-NH—CO-PABA-benzyl benzoate [III.B.2.1.2.]”, the “Decrease (%)” value in the series on mite population is listed as 59%. On to cotton-S—S-IgG [Cotton/IgG], for which, in series [1], the “% of released active principle” value is 40.8%. With cotton-S-S-cys-PABA-hydrocortisone, in series [3], the “% reduction in the weight” value amounted to 55.0%. Further, the “% reduction of the erythema extension with respect to controls on the 5th day after the induction” value with UV-induced edema in skin is 60.0%. Regarding “cotton-CH═N-lys-NH—CO-PABA-benzylbenzoate [III.B.2.1.1.]”, the “Decrease (%)” value with mite population is recorded as 58%.

Regarding “cotton-S—S—CH2—CH(NH—CO-lipase)-CO—NH-lipase”, the “lower lipid content than the controls” value in series [4] was 45%. Consider cotton-CH2—NH-lys-NH—CH2-Ph-OH, for which the “% of released active principle” value in series [1] amounted to 1.2%. Further, the “% reduction … of colonies” value in the series on Escherichia coli came to 85%; in the series on Staphylococcus aureus, 85%; in the series with Candida albicans, 75%. Regarding cotton-CH═N-gramicidin, the “% reduction … of colonies” value is reported as 80% with Escherichia coli, 90% in the series on Staphylococcus aureus and 65% in the series with Candida albicans.
